{"source": "patent US10889554B2", "about": "“Excimer forming compounds” (THE GOVERNING COUNCIL OF THE UNIVERSITY OF TORONTO, priority 2013, dated 2021)", "key": {"pYpY peptide": {"test_system": "pYpY peptide", "test": "Detection of pY and pYpY peptides with non-pyrene excimer forming derivatives", "format": "binding", "details": "for excimer emission peak in response to pYpY peptide in fluorescence emission spectra / peak when pYpY spectra are divided by those of pY or buffer control: 250 μM Zn^2+ triflate complexes, 125 μM peptide, irradiated at 290 nm; for detection limit of pYpY peptide, selectively over pY peptide: 250 μM compound in complex with Zn^2+ (triflate salt), pH 7.5 50 mM HEPES, 10% DMSO", "description": "Non-pyrene excimer forming derivatives (compounds 4-7) were synthesized and assessed for their ability to sense proximally phosphorylated peptides. All experiments for these derivatives were performed in pH 7.5 50 mM HEPES, 10% DMSO. 125 μM pY and pYpY peptides were combined with 250 μM of compounds 4, 5 and 6 (Zn^2+ triflate complexes), or buffer as background control, and the solution was irradiated at 290 nm and fluorescence emission scan was recorded. […] These peaks indicate that the spike in response to the addition of pYpY corresponds to excimer formation, since 420 nm region corresponds to a roughly 100 nm shift from the monomer emission maximum (approximately at 330 nm).\npY and pYpY peptides were titrated into 250 μM of compound 4 in complex with Zn^2+ (triflate salt) in pH 7.5 50 mM HEPES, 10% DMSO. […] Time-resolved experiments were also conducted, where the delay time prior to acquisition of fluorescence was varied (0, 5, 10, and 15 μs; FIG. 21). In this case, the concentration of compound 4 in complex with Zn^2+ (triflate salt) was constant at 40 μM.\npY and pYpY peptides were also titrated into 250 μM of compound 5 in complex with Zn^2+ (triflate salt) in pH 7.5, 50 mM HEPES, 10% DMSO. The fluorescence emission spectra (FIG. 23) indicate a pYpY-selective enhancement in the excimer region of the fluorophore."}, "β-casein": {"biological_target": "T1, β-casein (Bos taurus, UniProt P02666)", "T1 construct": "purchased Sigma Aldrich C6905-250MG", "T1 sequence (P02666 16-224)": "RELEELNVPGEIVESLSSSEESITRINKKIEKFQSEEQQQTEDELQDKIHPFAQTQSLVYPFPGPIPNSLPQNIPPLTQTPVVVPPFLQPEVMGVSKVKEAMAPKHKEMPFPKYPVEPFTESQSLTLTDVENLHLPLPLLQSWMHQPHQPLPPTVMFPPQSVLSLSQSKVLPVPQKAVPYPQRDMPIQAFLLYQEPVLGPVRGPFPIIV", "test": "On-gel detection of proximally phosphorylated protein using GaCl3 complexes", "format": "binding", "description": "(§1) Compound 8 was dissolved in 50 mM NaOAc buffer, pH 4.5, 50 mM NaCl, 10% DMSO and combined with 80, 160 or and 240 μM GaCl3 solutions. Each gel contained 4 lanes with equal amounts of BSA, ovalbumin (Ova), β-casein (β-cas) and lysozyme (Lyso) in each lane (left to right: 1, 0.5, 0.25 and 0.125 μg per protein per lane) (see FIG. 37). Gels were stained for 1 h with the sensor solution. Gels were first de-stained with 50 mM NaOAc buffer pH 4.5 for 2 h and then with 50 mM NaOAc buffer pH 4.0 20% acetonitrile for 40 h.\n(§2) Compound 8 was dissolved in 100 mM NaOAc buffer, pH 4.5, 150 mM NaCl, 20% propylene glycol and combined with 10 and 15 μM GaCl3 solutions. Each gel contained 4 lanes with equal amounts of BSA, ovalbumin (Ova), β-casein (β-cas) and lysozyme (Lyso) in each lane (FIG. 40) left to right: 1, 0.5, 0.25 and 0.125 μg per protein per lane). Gels were stained for 1.5 h with the sensor solution. Destaining was performed for variable time (specified at the top) with 50 mM NaOAc, pH 4.0, 20% acetonitrile. Gels were rinsed with MiliQ water for 5 min prior to imaging. Images were acquired using ChemiDoc MP, using a 530 nm emission filter and UV trans excitation.\nas §1, with “Compound 2” for “Compound 8”, “lane) (FIG. 42).” for “lane) (see FIG. 37).”, “h. […] However with the increased destaining time the intensity of β-casein band relative to other proteins was increasing, resulting in a 6.7-fold higher intensity over the distally phosphorylated protein ovalbumin. Lane containing 1 μg of each protein was analyzed (FIG. 43).” for “h.”\nas §2, with “2” for “8”, “45)” for “40)”, “acetonitrile (see FIGS. 45 and 46).” for “acetonitrile.”"}, "[1]": {"test_system": "proximally phosphorylated proteins (α-casein, β-casein and D-α-casein)", "test": "In-solution detection of proteins", "format": "binding, Bos taurus", "details": "Zn^2+ (triflate salt) complexes; pH 7.5, 50 mM HEPES, 75 mM NaCl, 20% DMSO", "text": "Non-phosphorylated (BSA and lysozyme) and distally phosphorylated negative control proteins (ovalbumin) were used in detection methods for in-solution, on gel and on blot applications. Dephosphorylated α-casein (D-α-casein), β-casein and α-casein served as proximally phosphorylated positive controls (see Table 2). The phosphosites presented in Table 2 were obtained from the PhosphoSitePlus database or a UniProt database.\nVarious conditions for the detection of proximally phosphorylated proteins and proteins in aqueous solution are shown in Table 3. Proteins were dissolved in a buffer at various concentrations (normally 100 μM to 40 nM), and combined with 40 μM of compound 1 in complex with Zn^2+ (triflate salt) dissolved in the same buffer on a 384 well flat bottom black plate. The mixture was incubated for 20 minutes and fluorescence emission intensity at 476 nm (10-20 nm bandwidth) was measured using a Tecan M1000 microplate reader, upon excitation at 350 nm (5 nm bandwidth) at 400 Hz. The different conditions tested were assessed based on the ratios of signal intensity of positive to negative control analytes and signal intensity in general. Among the parameters assessed in this study and using these specific control proteins, the following conditions were selected for proteins studies: pH 5.5 50 mM NaOAc, 50 mM NaCl, 5% DMSO (see FIG. 27). […] Depending on the number of proximally di-phosphorylated sites, lower detection limits could be achieved by using lower concentration of a sensor.\nUsing same methods as described in Example 1.1c, Zn^2+ (triflate salt) complexes of compounds 1 (top left), compound 9 (top right), compound 15 (middle left), and compound 14 (middle right) were tested in pH 7.5, 50 mM HEPES, 75 mM NaCl, 20% DMSO (see FIG. 28).\nUsing same methods as described in Example 14, 40 and 20 μM of Zn^2+ (triflate salt) complexes of compound 1 (top) and compound 12 (bottom) (FIG. 29), were tested in pH 7.5, 50 mM HEPES, 5% DMSO.\nUsing same methods as described above, 60, 40, 20 and 10 μM of Zn^2+ (triflate salt) complexed with compound 12 (FIG. 30), were titrated with 80-0.04 μM of proteins in pH 7.5, 50 mM HEPES, 5% DMSO."}}}
{"smiles": "O=C(Cc1ccc2ccc3cccc4ccc1c2c34)N1CCNCCNCCNCC1", "values": [{"measurement": "melting point", "value": "75 to 79", "unit": "°C"}]}
{"smiles": "O=C(CCCc1ccc2ccc3cccc4ccc1c2c34)N1CCNCCNCCNCC1", "values": [{"measurement": "melting point", "value": "83 to 86", "unit": "°C"}]}
{"smiles": "c1cc2ccc3ccc(CCCCOCc4cc(CN5CCNCCNCCNCC5)cc(CN5CCNCCNCCNCC5)c4)c4ccc(c1)c2c34", "values": [{"measurement": "melting point", "value": "55 to 60", "unit": "°C"}]}
{"smiles": "c1ccc2c(CN3CCNCCNCCNCC3)cccc2c1", "note": "[compound 4, 1-(naphthalen-1-ylmethyl)-1,4,7,10-tetraazacyclododecane]", "values": [{"measurement": "excimer emission peak in response to pYpY peptide in fluorescence emission spectra", "setting": "pYpY peptide", "value": "No distinct peak"}, {"measurement": "peak when pYpY spectra are divided by those of pY or buffer control", "setting": "pYpY peptide", "value": "distinct peak in the 420 nm region"}, {"measurement": "detection limit of pYpY peptide, selectively over pY peptide", "setting": "pYpY peptide", "value": "single-digit"}, {"measurement": "signal selectivity towards pYpY with 15 μs delay time", "setting": "pYpY peptide; time-resolved, 40 μM compound in complex with Zn^2+", "value": "retained"}]}
{"smiles": "c1ccc2cc(CN3CCNCCNCCNCC3)ccc2c1", "note": "[compound 5, 1-(naphthalen-2-ylmethyl)-1,4,7,10-tetraazacyclododecane]", "values": [{"measurement": "excimer emission peak in response to pYpY peptide in fluorescence emission spectra", "setting": "pYpY peptide", "value": "No distinct peak"}, {"measurement": "peak when pYpY spectra are divided by those of pY or buffer control", "setting": "pYpY peptide", "value": "distinct peak in the 420 nm region"}, {"measurement": "detection limit of pYpY peptide, selectively over pY peptide", "setting": "pYpY peptide", "value": "single-digit"}]}
{"smiles": "c1ccc2c(c1)cc(CN1CCNCCNCCNCC1)c1ccccc12", "note": "[compound 6, 1-(phenanthren-9-ylmethyl)-1,4,7,10-tetraazacyclododecane]", "values": [{"measurement": "excimer emission peak in response to pYpY peptide in fluorescence emission spectra", "setting": "pYpY peptide", "value": "No distinct peak"}]}
{"smiles": "O=C(O)CN(CC(=O)O)c1ccccc1OCCOc1cc(NC(=O)c2ccc3ccc4cccc5ccc2c3c45)ccc1N(CC(=O)O)CC(=O)O", "note": "[compound 8, 2,2′-((2-(2-(2-(bis(carboxymethyl)amino)-5-(pyrene-1-carboxamido)phenoxy)ethoxy)phenyl)azanediyl)diacetic acid]", "values": [{"measurement": "selectivity for β-casein after 2 h destaining", "setting": "β-casein; 80 μM compound, 1:1 GaCl3, stained 1 h", "value": "improved"}, {"measurement": "β-casein over distally phosphorylated ovalbumin", "setting": "β-casein; 80 μM compound, 1:1 GaCl3, stained 1 h, 40 h destaining, 1 μg per protein", "value": 4.5, "unit": "fold"}, {"measurement": "selectivity for β-casein with more than 1:1 equivalent of compound:GaCl3", "setting": "β-casein; 50 mM NaOAc pH 4.5, 50 mM NaCl, 10% DMSO, 160 or 240 μM GaCl3", "value": "did not result in good selectivity"}, {"measurement": "selective staining for β-casein, no destaining", "setting": "β-casein; 100 mM NaOAc pH 4.5, 150 mM NaCl, 20% propylene glycol, 1:1 and 1:1.5 compound:GaCl3, stained 1.5 h", "value": "did not result in selective staining"}, {"measurement": "staining of β-casein band following 16 h destain", "setting": "β-casein; 100 mM NaOAc pH 4.5, 150 mM NaCl, 20% propylene glycol, destain 50 mM NaOAc, pH 4.0, 20% acetonitrile", "value": "most prominently stained band"}]}
{"smiles": "c1ccc(CN(Cc2ccccn2)Cc2ccc3ccc4cccc5ccc2c3c45)nc1", "note": "[compound 14, 1-(pyren-1-yl)-N,N-bis(pyridin-2-ylmethyl)methanamine]", "values": [{"measurement": "efficiency at detecting the proximally phosphorylated proteins", "setting": "[1]", "value": "comparable efficiency"}, {"measurement": "melting point", "value": "108 to 112", "unit": "°C"}]}
{"smiles": "c1ccc(CN(CCCCc2ccc3ccc4cccc5ccc2c3c45)Cc2ccccn2)nc1", "note": "[compound 15, 4-(pyren-1-yl)-N,N-bis(pyridin-2-ylmethyl)butan-1-amine]", "values": [{"measurement": "efficiency at detecting the proximally phosphorylated proteins", "setting": "[1]", "value": "comparable efficiency"}, {"measurement": "melting point", "value": "61 to 62", "unit": "°C"}]}
